# Data taken from patent US9447044B2, “Thioaryl derivatives as GPR120 agonists” (LG LIFE SCIENCES LTD., priority 2012, dated 2016).
# Target: T1, hGPR120 (Homo sapiens, UniProt Q5NUL3)
# T1 construct: expressed in transfected cells; host or cells: CHO-K1
# T1 sequence (Q5NUL3 1-361): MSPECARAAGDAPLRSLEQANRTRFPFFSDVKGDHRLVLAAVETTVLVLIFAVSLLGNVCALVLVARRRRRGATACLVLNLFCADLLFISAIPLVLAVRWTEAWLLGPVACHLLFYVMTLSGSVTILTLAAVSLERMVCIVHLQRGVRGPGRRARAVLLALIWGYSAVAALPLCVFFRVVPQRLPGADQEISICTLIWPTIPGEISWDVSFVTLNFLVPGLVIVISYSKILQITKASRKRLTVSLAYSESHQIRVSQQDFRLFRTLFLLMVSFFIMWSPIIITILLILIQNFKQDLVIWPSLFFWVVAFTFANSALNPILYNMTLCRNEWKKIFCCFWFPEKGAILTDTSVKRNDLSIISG
# Experiment: Measurement of activity of GPR120 agonist (cell-based assay), calcium fluorescence
# Conditions: CHO-K1 cells expressing Ga16 and hGPR120, Calcium 5 dye fluorescence
# Procedure: CHO-K1 cells expressing Ga16 and hGPR120 were dispensed into each well of a 96-well plate (3×10^4 cells/100 μl/well) and then incubated in 5% CO2, 37° C. incubator for 18 hours. Each well was treated with 100 μl of Calcium 5 dye (Molecular Devices) solution including 2% DMSO and then incubated in 5% CO2, 37° C. incubator for 1 hour. Serially diluted GPR120 agonists were prepared to a final concentration of 0.5% DMSO in a 96-well plate. Each well was treated with 50 μl of the agonist compounds using Plexstation II, and then fluorescence was measured at Ex 485 nm, Em 525 nm.
# Fluorescence increased by the serially diluted GPR120 agonists is calculated as a relative percent (%) value based on the fluorescence represented by the treatment of 0.1% DMSO only. […] The calculation of measurement was carried out by using statistical software (Prizm).
# Activity is denoted based on the following criteria: A=>20 μM, B=[…], C=2˜0.2 μM, D=<0.2 μM
smiles,measurement,setting,value
"CC(Cc1ccc(OCc2cccnc2SC2CCC2)c(Cl)c1)C(=O)O (centres unmarked) [Example 95, 3-[3-chloro-4-(2-cyclobutylsulfanyl-pyridin-3-ylmethoxy)-phenyl]-2-methyl-propionic acid]",EC50,numeric value,88 nM
"O=C(O)C1CC1c1ccc(OCc2cccc(SC3CCC3)n2)c(F)c1 (single isomer, unassigned) [Example 167, 2-[4-(6-cyclobutylsulfanyl-pyridin-2-ylmethoxy)-3-fluoro-phenyl]-cyclopropane carboxylic acid]",EC50,numeric value,6 nM
"CCCSc1ncccc1COc1c(F)cc(C2CC2C(=O)O)cc1F (centres unmarked) [Example 139, 2-[3,5-difluoro-4-(2-propylsulfanyl-pyridin-3-ylmethoxy)-phenyl]-cyclopropane carboxylic acid]",EC50,activity class,< 200 nM
"O=C(O)C1CC1c1ccc(OCc2cccc(SCC3CC3)n2)c(Cl)c1 (centres unmarked) [Example 98, 2-[3-chloro-4-(6-cyclopropylmethylsulfanyl-pyridin-2-ylmethoxy)-phenyl]-cyclopropane carboxylic acid]",EC50,activity class,< 200 nM
"CC(Cc1ccc(OCc2cccc(SC3CCC3)n2)c(Cl)c1)C(=O)O (centres unmarked) [Example 96, 3-[3-chloro-4-(6-cyclobutylsulfanyl-pyridin-2-ylmethoxy)-phenyl]-2-methyl-propionic acid]",EC50,activity class,< 200 nM
"CC(C)Sc1cccc(COc2ccc3c(c2)OCC3CC(=O)O)n1 (centres unmarked) [Example 67, [6-(6-isopropylsulfanyl-pyridin-2-ylmethoxy)-2,3-dihydro-benzofuran-3-yl]-acetic acid]",EC50,activity class,200 to 2000 nM
"O=C(O)C1CC1c1ccc(OCc2cccc(SC3CCC3)n2)c(Cl)c1 (centres unmarked) [Example 132, 2-[3-chloro-4-(6-cyclobutylsulfanyl-pyridin-2-ylmethoxy)-phenyl]-cyclopropane carboxylic acid]",EC50,activity class,< 200 nM
O=C(O)CCc1cc(F)c(OCc2cccc(SC3CCCC3)n2)c(F)c1 [Example 30],EC50,activity class,< 200 nM
"O=C(O)C1CC1c1ccc(OCc2cccnc2SC2CCCC2)c(F)c1 (single isomer, unassigned) [Example 164, 2-[4-(2-cyclopentylsulfanyl-pyridin-3-ylmethoxy)-3-fluoro-phenyl]-cyclopropane carboxylic acid]",EC50,activity class,< 200 nM
"CCCSc1ncccc1COc1ccc(C2CC2C(=O)O)c(C)c1C (centres unmarked) [Example 112, 2-[2,3-dimethyl-4-(2-propylsulfanyl-pyridin-3-ylmethoxy)-phenyl]-cyclopropane carboxylic acid]",EC50,activity class,> 20000 nM
"Cc1c(OCc2cccnc2SCC2CC2)ccc(C2CC2C(=O)O)c1C (centres unmarked) [Example 106, 2-[4-(2-cyclopropylmethylsulfanyl-pyridin-3-ylmethoxy)-2,3-dimethyl-phenyl]-cyclopropane carboxylic acid]",EC50,activity class,> 20000 nM
"O=C(O)CCc1ccc(OCc2cccnc2SCC2CC2)c(F)c1 [Example 147, 3-[4-(2-cyclopropylmethylsulfanyl-pyridin-3-ylmethoxy)-3-fluoro-phenyl]-propionic acid]",EC50,numeric value,54 nM
"CC(C)Sc1ncccc1COc1c(F)cc(CC2CC2C(=O)O)cc1F (centres unmarked) [Example 116, 2-[3,5-difluoro-4-(2-isopropylsulfanyl-pyridin-3-ylmethoxy)-benzyl]-cyclopropane carboxylic acid]",EC50,activity class,200 to 2000 nM
"CC(C)Sc1nccnc1COc1c(F)cc(CCC(=O)O)cc1F [Example 20, 3-[3,5-difluoro-4-(3-isopropylsulfanyl-pyrazin-2-ylmethoxy)-phenyl]-propionic acid]",EC50,activity class,200 to 2000 nM
"CC(C)Sc1ncccc1COc1ccc(CC(C)C(=O)O)cc1 (centres unmarked) [Example 4, 3-[4-(2-isopropylsulfanyl-pyridin-3-ylmethoxy)-phenyl]-2-methyl-propionic acid]",EC50,activity class,200 to 2000 nM
O=C(O)CCc1ccc(OCc2cccc(SC3CCC3)n2)cc1 [Example 181],EC50,activity class,< 200 nM
"O=C(O)CC1COc2c1cc(F)c(OCc1cccnc1SC1CCC1)c2F (centres unmarked) [Example 111, [6-(2-cyclobutylsulfanyl-pyridin-3-ylmethoxy)-5,7-difluoro-2,3-dihydro-benzofuran-3-yl]-acetic acid]",EC50,activity class,< 200 nM
"CC(Cc1ccc(OCc2cccc(SC3CCCC3)n2)c(F)c1)C(=O)O (centres unmarked) [Example 54, 3-[4-(6-cyclopentylsulfanyl-pyridin-2-ylmethoxy)-3-fluoro-phenyl]-2-methyl-propionic acid]",EC50,activity class,< 200 nM
"CC(C)CSc1ncccc1COc1c(F)cc(CCC(=O)O)cc1F [Example 11, 3-[3,5-difluoro-4-(2-isobutylsulfanyl-pyridin-3-ylmethoxy)-phenyl]-propionic acid]",EC50,activity class,< 200 nM
O=C(O)CCc1ccc(OCc2cccnc2SCC2CC2)cc1 [Example 182],EC50,activity class,< 200 nM
"CC(C)Sc1cccc(COc2ccc(C3CC3C(=O)O)cc2F)n1 (single isomer, unassigned) [Example 166, 2-[3-fluoro-4-(6-isopropylsulfanyl-pyridin-2-ylmethoxy)-phenyl]-cyclopropane carboxylic acid]",EC50,activity class,< 200 nM
"Cc1c(OCc2cccnc2SC2CCC2)ccc(C2CC2C(=O)O)c1C (centres unmarked) [Example 113, 2-[4-(2-cyclobutylsulfanyl-pyridin-3-ylmethoxy)-2,3-dimethyl-phenyl]-cyclopropane carboxylic acid]",EC50,activity class,> 20000 nM
"COc1cc(CCC(=O)O)ccc1OCc1cccc(SC2CCCC2)n1 [Example 73, 3-[4-(6-cyclopentylsulfanyl-pyridin-2-ylmethoxy)-3-methoxy-phenyl]-propionic acid]",EC50,activity class,200 to 2000 nM
"Cc1c(CCC(=O)O)ccc(OCc2cccnc2SC(C)C)c1C [Example 79, 3-[4-(2-isopropylsulfanyl-pyridin-3-ylmethoxy)-2,3-dimethyl-phenyl]-propionic acid]",EC50,numeric value,33 nM
"CC(C)Sc1ncccc1COc1ccc(CCC(=O)O)cc1 [Example 2, 3-[4-(2-isopropylsulfanyl-pyridin-3-ylmethoxy)-phenyl]-propionic acid]",EC50,activity class,< 200 nM
"CCCCSc1ncccc1COc1c(F)cc(C2CC2C(=O)O)cc1F (centres unmarked) [Example 66, 2-[4-(2-butylsulfanyl-pyridin-3-ylmethoxy)-3,5-difluoro-phenyl]-cyclopropane carboxylic acid]",EC50,activity class,< 200 nM
"CC(C)Sc1ncccc1COc1ccc2c(c1)OCC2CC(=O)O (centres unmarked) [Example 59, [6-(2-isopropylsulfanyl-pyridin-3-ylmethoxy)-2,3-dihydro-benzofuran-3-yl]-acetic acid]",EC50,activity class,200 to 2000 nM
"CC(C)Sc1cccc(COc2c(F)cc(C3CC3C(=O)O)cc2F)n1 (centres unmarked) [Example 152, 2-[3,5-difluoro-4-(6-isopropylsulfanyl-pyridin-2-ylmethoxy)-phenyl]-cyclopropane carboxylic acid]",EC50,activity class,< 200 nM
"O=C(O)C1CC1c1ccc(OCc2cccc(SC3CCC3)n2)c(Cl)c1 (centres unmarked) [Example 103, 2-[3-chloro-4-(6-cyclobutylsulfanyl-pyridin-2-ylmethoxy)-phenyl]-cyclopropane carboxylic acid]",EC50,activity class,< 200 nM
"CC(C)Sc1ncccc1COc1ccc(CCCC(=O)O)cc1 [Example 13, 4-[4-(2-isopropylsulfanyl-pyridin-3-ylmethoxy)-phenyl]-butyric acid]",EC50,activity class,< 200 nM
"CC(Cc1ccc(OCc2cccnc2SCC2CC2)c(Cl)c1)C(=O)O (centres unmarked) [Example 91, 3-[3-chloro-4-(2-cyclopropylmethylsulfanyl-pyridin-3-ylmethoxy)-phenyl]-2-methyl-propionic acid]",EC50,activity class,< 200 nM
"O=C(O)C1CC1c1ccc(OCc2cccnc2SC2CCC2)c(F)c1 (single isomer, unassigned) [Example 169, 2-[4-(2-cyclobutylsulfanyl-pyridin-3-ylmethoxy)-3-fluoro-phenyl]-cyclopropane carboxylic acid]",EC50,activity class,< 200 nM
O=C(O)CCc1ccc(OCc2cccc(SC3CCCC3)n2)cc1 [Example 29],EC50,activity class,< 200 nM
"CC(C)Sc1ncccc1COc1c(F)cc(CC(C)C(=O)O)cc1F (centres unmarked) [Example 41, 3-[3,5-difluoro-4-(2-isopropylsulfanyl-pyridin-3-ylmethoxy)-phenyl]-2-methyl-propionic acid]",EC50,activity class,< 200 nM
"CCC(C)Sc1ncccc1COc1ccc(CC(C)C(=O)O)cc1F (centres unmarked) [Example 39, 3-[4-(2-sec-butylsulfanyl-pyridin-3-ylmethoxy)-3-fluoro-phenyl]-2-methyl-propionic acid]",EC50,activity class,< 200 nM
"CC(C)Sc1cccc(COc2c(F)cc(C3CC3C(=O)O)cc2F)n1 (centres unmarked) [Example 64, 2-[3,5-difluoro-4-(6-isopropylsulfanyl-pyridin-2-ylmethoxy)-phenyl]-cyclopropane carboxylic acid]",EC50,numeric value,108 nM
"CC(C)Sc1cccc(COc2ccc(CCC(=O)O)cc2F)n1 [Example 149, 3-[3-fluoro-4-(6-isopropylsulfanyl-pyridin-2-ylmethoxy)-phenyl]-propionic acid]",EC50,activity class,< 200 nM
"CC(C)Sc1cccc(COc2c(F)cc(CC(C)C(=O)O)cc2F)n1 (centres unmarked) [Example 49, 3-[3,5-difluoro-4-(6-isopropylsulfanyl-pyridin-2-ylmethoxy)-phenyl]-2-methyl-propionic acid]",EC50,activity class,< 200 nM
